How the values were obtained:
Mus musculus [1] = assay: Anticonvulsant activity in ip dosed albino CF1 mouse assessed as protection against pentylenetetrazole-induced clonic convulsions; assay type: functional
Mus musculus [2] = assay: Inhibition of oxotremorine-induced hypothermia in ip dosed albino CF1 mouse; assay type: functional
Mus musculus [3] = assay: Anticonvulsant activity in ip dosed albino CF1 mouse assessed as inhibition of bicucullin-induced tonic extensor convulsions; assay type: functional
Mus musculus [4] = assay: Inhibition of amphetamine aggregation toxicity in ip dosed albino CF1 mouse compound administered 1 hr prior to challenge measured after 2 hrs; assay type: functional
Mus musculus [5] = assay: […] activity in ip dosed albino CF1 mouse assessed as potentiation of gamma-butyrolactone-induced sleep; assay type: functional
Mus musculus [6] = assay: Potentiation of apomorphine-induced gnawing in ip dosed albino CF1 mouse; assay type: organism-based
Mus musculus [7] = assay: Inhibition of apomorphine-induced cage climbing in ip dosed albino CF1 mouse compound administered prior to challenge measured for 5 mins after 5 mins of challenge; assay type: functional
Mus musculus [8] = assay: Reduction of hypoxic stress in ip dosed albino CF1 mouse assessed as prolongation of hypoxic survival time; assay type: functional
Mus musculus [9] = assay: Potentiation of yohimbine toxicity in ip dosed aggregated albino CF1 mouse; assay type: organism-based
Mus musculus [10] = assay: Hypothermic activity in ip dosed albino CF1 mouse assessed as effect on body temperature measured after 45 mins; assay type: functional; details: 0.75 h

| SMILES | ED50 (Mus musculus [1]) [mg/kg] | ED50 (Mus musculus [2]) [mg/kg] | ED50 (Mus musculus [3]) [mg/kg] | ED50 (Mus musculus [4]) [mg/kg] | ED50 (Mus musculus [5]) [mg/kg] | ED50 (Mus musculus [6]) [mg/kg] | ED50 (Mus musculus [7]) [mg/kg] | ED50 (Mus musculus [8]) [mg/kg] | ED50 (Mus musculus [9]) [mg/kg] | ED50 (Mus musculus [10]) [mg/kg] |
| --- | --- | --- | --- | --- | --- | --- | --- | --- | --- | --- |
| Nc1nnc2n1-c1ccc(Cl)cc1C(c1ccccc1)=NC2 | 14 | > 50 | 20 | > 50 | 2 | > 50 | > 50 | > 50 | > 50 | 9 |
| CSc1nnc2n1-c1ccc(Cl)cc1C(c1ccccc1)=NC2 | 8 | > 50 | 10 | > 50 | 0.8 | > 50 | > 50 | 10 | > 50 | 10 |
| FC(F)(F)c1nnc2n1-c1ccc(Cl)cc1C(c1ccccc1)=NC2 | 20 | > 50 | > 50 | > 50 | > 50 | > 50 | > 50 | > 50 | > 50 | > 50 |
| COC(=O)Cc1nnc2n1-c1ccc(Cl)cc1C(c1ccccc1)=NC2 | > 50 | > 50 | > 50 | > 50 | > 50 | > 50 | > 50 | > 50 | > 50 | > 50 |
| CN(C)C(=O)Cc1nnc2n1-c1ccc(Cl)cc1C(c1ccccc1)=NC2 | 5.6 | > 50 | 40 | > 50 | 10 | > 50 | > 50 | > 50 | > 50 | > 50 |
| OCCc1nnc2n1-c1ccc(Cl)cc1C(c1ccccc1)=NC2 | 4 | > 50 | > 50 | > 50 | > 50 | > 50 | > 50 | 4 | > 50 | 30 |
| CC1N=C(c2ccccc2)c2cc(Cl)ccc2-n2c(Br)nnc21 (stereo not given) | 3.7 | > 50 | 1.9 | > 50 | 3.1 | > 50 | > 50 | > 50 | > 50 | > 50 |
| Clc1ccccc1C1=NCc2nncn2-c2ccccc21 | > 50 | > 50 | 42 | > 50 | 12.5 | > 50 | > 50 | > 50 | > 50 | > 50 |
| CC1N=C(c2ccccc2)c2cc(Cl)ccc2-n2cnnc21 (stereo not given) | 3.7 | 7.4 | 4.4 | > 50 | 0.6 | > 50 | > 50 | 42 | > 50 | 10.5 |
| Clc1ccccc1C1=NCc2nnc(Br)n2-c2ccccc21 | 10.5 | > 50 | 25 | > 50 | 6.2 | > 50 | > 50 | 8.8 | > 50 | > 50 |
| Clc1ccc2c(c1)C(c1ccccc1)=NCc1nnc(N3CCN(c4ccccc4)CC3)n1-2 | > 50 | > 50 | > 50 | > 50 | > 50 | > 50 | > 50 | > 50 | > 50 | > 50 |
| OCCN1CCN(c2nnc3n2-c2ccc(Cl)cc2C(c2ccccc2)=NC3)CC1 | 42 | > 50 | 8.8 | > 50 | 1.6 | 25 | > 50 | > 50 | > 50 | > 50 |
| Clc1ccc2c(c1)C(c1ccccc1)=NCc1nnc(N3CCNCC3)n1-2 | > 50 | 34 | > 50 | > 50 | > 50 | > 50 | > 50 | > 50 | > 50 | > 50 |
| CN(C)CCN(C)c1nnc2n1-c1ccc(Cl)cc1C(c1ccccc1)=NC2 | 30 | > 50 | 42 | > 50 | 12.5 | > 50 | > 50 | > 50 | > 50 | 40 |
| CN1CCN(c2nnc3n2-c2ccc(Br)cc2C(c2ccccn2)=NC3)CC1 | 12.5 | > 50 | 8.8 | > 50 | 3.1 | 3.7 | > 50 | 21 | 35.4 | > 50 |
| CN1CCN(c2nnc3n2-c2ccccc2C(c2ccccc2Cl)=NC3)CC1 | 6.2 | > 25 | > 25 | > 25 | > 25 | > 25 | 4.4 | 1.1 | > 25 | 0.2 |
| CN1CCN(c2nnc3n2-c2ccccc2C(c2ccccc2)=NC3)CC1 | 14.9 | 35.4 | > 50 | > 50 | > 50 | > 50 | 25 | > 50 | > 50 | 12.5 |
| c1ccc(C2=NCc3nnc(N4CCOCC4)n3-c3ccccc32)cc1 | 9 | > 50 | > 50 | > 50 | 20 | > 50 | > 50 | > 50 | > 50 | > 50 |
| Clc1ccc2c(c1)C(c1ccccc1)=NCc1nnc(N3CCCC3)n1-2 | 4.5 | 30 | 4 | > 50 | 3 | > 50 | > 50 | > 50 | > 50 | 40 |
| CCN(CC)CCOc1nnc2n1-c1ccc(Cl)cc1C(c1ccccc1)=NC2 | 8.8 | > 50 | 12.5 | > 50 | 2.2 | > 50 | > 50 | 40 | 42 | > 50 |
| Clc1ccc2c(c1)C(c1ccccc1)=NCc1nnc(C(Cl)Cl)n1-2 | 8 | > 50 | 10 | > 50 | 3 | > 50 | > 50 | > 50 | > 50 | > 50 |
| Cc1nnc2n1-c1ccc(Cl)cc1C(c1ccccc1)=NC2 [ALPRAZOLAM] | 0.1 | > 50 | 0.2 | > 50 | 0.08 | > 50 | > 50 | 0.2 | > 50 | > 50 |
| CN1C(=O)CN=C(c2ccccc2)c2cc(Cl)ccc21 [DIAZEPAM] | 0.1 | > 50 | 2.6 | > 50 | 0.035 | > 50 | > 50 | 0.2 | > 50 | 14.9 |
